Patent US20250320189A1, “NEW DERIVATIVES FOR TREATING TRPM3 MEDIATED DISORDERS” (Katholieke Universiteit Leuven, priority 2022, published 2025)

Biological target: T1, mouse TRPM3α2 (mTRPM3) ion channel (Mus musculus, UniProt J9SQF3)
T1 construct: expressed in transfected cells; host or cells: flip-in (Flp-In) HEK293
Test: Monitoring the TRPM3 ion channel driven Ca2+ uptake (Fluo-4 AM assay)
Format: cell-based
Conditions: mTRPM3alpha2 overexpressing flip-in HEK293 cells, stimulated with Pregnenolone sulfate (PS) 50 μM
Method: In order to monitor the inhibition of the mouse TRPM3α2 (mTRPM3) ion channel by the compounds of the invention, a cellular system making use of an mTRPM3alpha2 or hTRPM3 overexpressing cell line (flip-in HEK293) was used. The TRPM3 channel was stimulated/opened with Pregnenolone sulfate (PS) (50 μM) which results in Ca^2+ influx.
For mTRPM3, the intracellular Ca^2+ was measured with a Calcium responsive dye, Fluor-4 AMV ester (Invitrogen). Cells were cultured until a confluence of 80-90%, washed with Versene (Invitrogen) and detached from the surface by a short incubation with 0.05% Trypsin (Invitrogen). The trypsination process was stopped by the addition of complete cell culture medium (DMEM, glutamax, 10% FCS, NEAA,Pen-Strep). Cells were collected and resuspended in Krebs buffer without Calcium at RT.
Prior the cell seeding (±2000 cells/well into a black, 384 well plate (Greiner)) the diluted compound was added in the assay plate, together with the PS dissolved in Krebs buffer containing Calcium. […] Directly after cell addition the plates were read on an Envision fluorescence reader (PerkinElmer) by an Excitation of 485 nm and emission at 535 nm.
Channel inhibition was calculated compared to a non-PS stimulated control versus a condition stimulated with PS (50 μM) with vehicle. The ability of the compounds of the invention to inhibit this activity was determined as: Percentage inhibition=[1−((RFU determined for sample with test compound present−RFU determined for sample with positive control inhibitor) divided by (RFU determined in the presence of vehicle−RFU determined for sample with positive control inhibitor))]*100.
The activities of the Example compounds tested are depicted in the table below. The activity ranges A, B and C refer to IC50 values in the Fluo-4 AM assay as follows: “A”: IC50<1 μM; “B”: 1 μM≤IC50≤20 μM and “C”: IC50>20 μM

T1 sequence (J9SQF3 1-1709 isoform J9SQF3-12): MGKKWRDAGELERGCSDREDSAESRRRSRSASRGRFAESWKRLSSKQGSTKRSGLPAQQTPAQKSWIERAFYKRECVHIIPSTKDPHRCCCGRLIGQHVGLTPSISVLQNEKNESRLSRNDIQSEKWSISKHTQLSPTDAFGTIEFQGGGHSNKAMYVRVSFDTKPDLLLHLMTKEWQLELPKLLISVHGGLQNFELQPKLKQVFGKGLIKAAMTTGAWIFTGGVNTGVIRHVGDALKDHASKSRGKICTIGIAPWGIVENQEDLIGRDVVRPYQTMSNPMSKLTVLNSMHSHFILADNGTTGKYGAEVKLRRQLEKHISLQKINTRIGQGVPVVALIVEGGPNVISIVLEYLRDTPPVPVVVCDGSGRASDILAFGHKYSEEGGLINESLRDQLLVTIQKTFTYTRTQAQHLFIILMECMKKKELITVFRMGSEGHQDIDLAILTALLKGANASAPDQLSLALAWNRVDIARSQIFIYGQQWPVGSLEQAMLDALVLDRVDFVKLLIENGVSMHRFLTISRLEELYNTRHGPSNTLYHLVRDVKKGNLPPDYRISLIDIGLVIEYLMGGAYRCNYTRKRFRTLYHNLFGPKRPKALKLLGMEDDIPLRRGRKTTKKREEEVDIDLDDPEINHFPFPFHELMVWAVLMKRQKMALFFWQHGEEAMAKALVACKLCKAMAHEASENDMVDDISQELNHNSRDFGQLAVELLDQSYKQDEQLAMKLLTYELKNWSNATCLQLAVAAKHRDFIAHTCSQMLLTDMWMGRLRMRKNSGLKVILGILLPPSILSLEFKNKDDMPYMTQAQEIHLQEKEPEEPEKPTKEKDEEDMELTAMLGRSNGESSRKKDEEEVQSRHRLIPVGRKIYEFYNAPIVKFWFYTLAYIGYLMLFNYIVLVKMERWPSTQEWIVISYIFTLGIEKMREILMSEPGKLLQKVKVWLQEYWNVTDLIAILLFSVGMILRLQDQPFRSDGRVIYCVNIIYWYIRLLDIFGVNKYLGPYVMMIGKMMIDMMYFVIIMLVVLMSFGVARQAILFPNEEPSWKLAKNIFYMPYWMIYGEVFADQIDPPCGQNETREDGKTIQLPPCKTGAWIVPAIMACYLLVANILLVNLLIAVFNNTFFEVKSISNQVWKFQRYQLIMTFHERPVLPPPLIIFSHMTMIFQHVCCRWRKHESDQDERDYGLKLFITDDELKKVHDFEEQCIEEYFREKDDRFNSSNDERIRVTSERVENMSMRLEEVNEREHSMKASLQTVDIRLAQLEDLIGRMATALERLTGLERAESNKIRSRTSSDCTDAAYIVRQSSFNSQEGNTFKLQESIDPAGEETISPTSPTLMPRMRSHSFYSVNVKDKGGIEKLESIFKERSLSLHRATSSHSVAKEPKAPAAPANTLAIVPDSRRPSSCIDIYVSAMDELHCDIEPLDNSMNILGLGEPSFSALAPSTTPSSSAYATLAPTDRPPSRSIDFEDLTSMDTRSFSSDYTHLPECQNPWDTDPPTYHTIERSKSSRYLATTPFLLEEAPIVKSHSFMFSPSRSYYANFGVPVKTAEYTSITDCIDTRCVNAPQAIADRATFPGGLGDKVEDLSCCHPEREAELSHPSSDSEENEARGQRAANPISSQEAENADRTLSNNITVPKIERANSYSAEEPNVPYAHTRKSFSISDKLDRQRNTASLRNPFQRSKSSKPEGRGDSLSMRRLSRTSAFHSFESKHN

Row | SMILES | IC50
1 | Cc1oc2ccc(OCC3CC3)cc2c1C(=O)NC(C)(CO)C(N)=O (single isomer, unassigned) [Cpd 017 - En2, 2-{[5-(cyclopropylmethoxy)-2-methyl-1-benzofuran-3-yl]formamido}-3-hydroxy-2-methylpropanamide] | < 1 µM
2 | Cc1oc2ccc(OCC3CCC3)cc2c1C(=O)NC(C)(CO)C(N)=O (single isomer, unassigned) [Cpd 053 - En1, 2-{[5-(cyclobutylmethoxy)-2-methyl-1-benzofuran-3-yl]formamido}-3-hydroxy-2-methylpropanamide] | < 1 µM
3 | Cc1oc2ccc(OCCC3CC3)cc2c1C(=O)N[C@H](C(N)=O)[C@@H](C)O [Cpd 012, (2S,3R)-2-{[5-(2-cyclopropylethoxy)-2-methyl-1-benzofuran-3-yl]formamido}-3-hydroxybutanamide] | < 1 µM
4 | Cc1oc2ccc(OCC3CC3)cc2c1C(=O)NC(CO)C(N)C(F)(F)F (single isomer, unassigned) [Cpd 056 - En2, N-[(2)-3-amino-4,4,4-trifluoro-1-hydroxybutan-2-yl]-5-(cyclopropylmethoxy)-2-methyl-1-benzofuran-3-carboxamide] | < 1 µM
5 | Cc1oc2ccc(OCC3CCC3)cc2c1C(=O)N[C@@H](C)C(N)=O [Cpd 007, (2S)-2-{[5-(cyclobutylmethoxy)-2-methyl-1-benzofuran-3-yl]formamido}propanamide] | < 1 µM
6 | Cc1oc2ccc(OCC3CC3)cc2c1C(=O)NC1(CO)COC1 [Cpd 029, 5-(cyclopropylmethoxy)-N-[3-(hydroxymethyl)oxetan-3-yl]-2-methyl-1-benzofuran-3-carboxamide] | < 1 µM
7 | Cc1oc2ccc(OCC3CCC3)cc2c1C(=O)NC(C)(CO)CO [Cpd 018, 5-(cyclobutylmethoxy)-N-(1,3-dihydroxy-2-methylpropan-2-yl)-2-methyl-1-benzofuran-3-carboxamide] | < 1 µM
8 | COCC(C)(CO)NC(=O)c1c(C)oc2ccc(OCC3(C(F)(F)F)CC3)cc12 (single isomer, unassigned) [Cpd 060 - En2, N-(1-hydroxy-3-methoxy-2-methylpropan-2-yl)-2-methyl-5-{[1-(trifluoromethyl)cyclopropyl]methoxy}-1-benzofuran-3-carboxamide] | < 1 µM
9 | Cc1oc2ccc(OCC3(C)CC3)cc2c1C(=O)NC1CCNCC1(F)F (single isomer, unassigned) [Cpd 032 - En2, N-(3,3-difluoropiperidin-4-yl)-2-methyl-5-[(1-methylcyclopropyl)methoxy]-1-benzofuran-3-carboxamide] | 1 to 20 µM
10 | NC(=O)[C@H](CO)NC(=O)c1c(C(F)F)oc2ccc(OCC3CC3)cc12 [Cpd 008, (2S)-2-{[5-(cyclopropylmethoxy)-2-(difluoromethyl)-1-benzofuran-3-yl]formamido}-3-hydroxypropanamide] | < 1 µM
11 | Cc1oc2ccc(OCC3CC3(F)F)cc2c1C(=O)NC1CCNCC1(F)F (single isomer, unassigned) [Cpd 031 - En2, 5-[(2,2-difluorocyclopropyl)methoxy]-N-(3,3-difluoropiperidin-4-yl)-2-methyl-1-benzofuran-3-carboxamide] | < 1 µM
12 | Cc1oc2ccc(OCC(F)F)cc2c1C(=O)NC(C)(CO)C(N)=O (single isomer, unassigned) [Cpd 041 - En2, 2-{[5-(2,2-difluoroethoxy)-2-methyl-1-benzofuran-3-yl]formamido}-3-hydroxy-2-methylpropanamide] | 1 to 20 µM
13 | Cc1oc2ccc(OCC3CC(F)(F)C3)cc2c1C(=O)NC(C)(CO)C(N)=O (single isomer, unassigned) [Cpd 054 - En2, 2-({5-[(3,3-difluorocyclobutyl)methoxy]-2-methyl-1-benzofuran-3-yl}formamido)-3-hydroxy-2-methylpropanamide] | < 1 µM
14 | Cc1oc2ccc(OC[C@H]3C[C@H](C)C3)cc2c1C(=O)NC(C)(CO)C(N)=O (single isomer, unassigned) [Cpd 059 - En1, Trans-3-hydroxy-2-methyl-2-({2-methyl-5-[(3-methylcyclobutyl)methoxy]-1-benzofuran-3-yl}formamido)propenamide] | < 1 µM
15 | Cc1oc2ccc(OCC3(C(F)F)CC3)cc2c1C(=O)NC(C)(CO)C(N)=O (single isomer, unassigned) [Cpd 014 - En2, 2-[(5-{[1-(difluoromethyl)cyclopropyl]methoxy}-2-methyl-1-benzofuran-3-yl)formamido]-3-hydroxy-2-methylpropanamide] | < 1 µM
16 | Cc1oc2ccc(OCC(F)(F)F)cc2c1C(=O)NC(C)(CO)C(N)=O (single isomer, unassigned) [Cpd 047 - En2, 3-hydroxy-2-methyl-2-{[2-methyl-5-(2,2,2-trifluoroethoxy)-1-benzofuran-3-yl]formamido}propanamide] | < 1 µM
17 | Cc1oc2ccc(OC[C@H]3C[C@H](C)C3)cc2c1C(=O)NC(C)(CO)C(N)=O (single isomer, unassigned) [Cpd 059 - En2, Trans-3-hydroxy-2-methyl-2-({2-methyl-5-[(3-methylcyclobutyl)methoxy]-1-benzofuran-3-yl}formamido)propenamide] | 1 to 20 µM

The remaining lines, values ahead:

Row | IC50 | SMILES
18 | < 1 µM | Cc1oc2ccc(OCC3CC3)cc2c1C(=O)NC1(C(N)=O)CCOC1 (single isomer, unassigned) [Cpd 035 - En2, N-(3-carbamoyloxolan-3-yl)-5-(cyclopropylmethoxy)-2-methyl-1-benzofuran-3-carboxamide]
19 | < 1 µM | Cc1oc2ccc(OCC3CCCC3)cc2c1C(=O)NC(C)(CO)C(N)=O (single isomer, unassigned) [Cpd 062 - En2, 2-{[5-(cyclopentylmethoxy)-2-methyl-1-benzofuran-3-yl]formamido}-3-hydroxy-2-methylpropanamide]
20 | < 1 µM | Cc1oc2ccc(OCC3(C)CC3)cc2c1C(=O)NC1CCNCC1(F)F (single isomer, unassigned) [Cpd 032 - En1, N-(3,3-difluoropiperidin-4-yl)-2-methyl-5-[(1-methylcyclopropyl)methoxy]-1-benzofuran-3-carboxamide]
21 | 1 to 20 µM | Cc1oc2ccc(OCC3CC3)cc2c1C(=O)NC(CO)C(N)C(F)(F)F (single isomer, unassigned) [Cpd 056 - En4, N-[(2)-3-amino-4,4,4-trifluoro-1-hydroxybutan-2-yl]-5-(cyclopropylmethoxy)-2-methyl-1-benzofuran-3-carboxamide]
22 | < 1 µM | Cc1oc2ccc(OCC(F)F)cc2c1C(=O)N[C@H](C(N)=O)[C@@H](C)O [Cpd 040, (2S,3R)-2-{[5-(2,2-difluoroethoxy)-2-methyl-1-benzofuran-3-yl]formamido}-3-hydroxybutanamide]
23 | < 1 µM | Cc1oc2ccc(OCC3(C(F)F)CC3)cc2c1C(=O)NC1(C(N)=O)CCOC1 (single isomer, unassigned) [Cpd 036 - En2, N-(3-carbamoyloxolan-3-yl)-5-{[1-(difluoromethyl)cyclopropyl]methoxy}-2-methyl-1-benzofuran-3-carboxamide]
24 | < 1 µM | Cc1oc2ccc(OCC3CC3(C)C)cc2c1C(=O)NC(C)(CO)C(N)=O (single isomer, unassigned) [Cpd 049 - En4, 2-({5-[(2,2-dimethylcyclopropyl)methoxy]-2-methyl-1-benzofuran-3-yl}formamido)-3-hydroxy-2-methylpropanamide]
25 | < 1 µM | Cc1oc2ccc(OCC34CC(C)(C3)C4)cc2c1C(=O)NC(C)(CO)C(N)=O (single isomer, unassigned) [Cpd 052 - En2, 3-hydroxy-2-methyl-2-{[2-methyl-5-({3-methylbicyclo[1.1.1]pentan-1-yl}methoxy)-1-benzofuran-3-yl]formamido}propenamide]
26 | 1 to 20 µM | Cc1oc2ccc(OCC(F)F)cc2c1C(=O)NC1(C(N)=O)CCOC1 (single isomer, unassigned) [Cpd 044 - En1, N-(3-carbamoyloxolan-3-yl)-5-(2,2-difluoroethoxy)-2-methyl-1-benzofuran-3-carboxamide]
27 | < 1 µM | Cc1oc2ccc(OCC3CC3)cc2c1C(=O)NC(C)(CO)CO [Cpd 023, 5-(cyclopropylmethoxy)-N-(1,3-dihydroxy-2-methylpropan-2-yl)-2-methyl-1-benzofuran-3-carboxamide]
28 | < 1 µM | Cc1oc2ccc(OCC3(C(F)(F)F)CC3)cc2c1C(=O)NC(C)(CO)C(N)=O (single isomer, unassigned) [Cpd 048 - En1, 3-hydroxy-2-methyl-2-[(2-methyl-5-{[1-(trifluoromethyl)cyclopropyl]methoxy}-1-benzofuran-3-yl)formamido]propanamide]
29 | 1 to 20 µM | Cc1oc2ccc(OCC3CC3(F)F)cc2c1C(=O)NC(CO)CC(F)(F)F (single isomer, unassigned) [Cpd 057 - En4, 5-[(2,2-difluorocyclopropyl)methoxy]-2-methyl-N-(4,4,4-trifluoro-1-hydroxybutan-2-yl)-1-benzofuran-3-carboxamide]
